Laboratory results: US5057512A, “3-amino-2-oxo-azetidine-1-sulfonic acids” (Uclaf; Roussel, priority 1981, dated 1991)

Columns and labels:
Experiment in all cases: M.I.C., dilutions in liquid medium
Assay type in all cases: cell-based
[1] = tested on: Klebsiella Pneumoniae 2536 Resistant Gentamycine; settings: 37° C.
Protocol: (§1) A. Activity in Vitro-Method of Dilutions in Liquid Medium
(§2) A series of tubes was prepared in which the same amount of sterile nutritive medium was distributed and there was distributed in each tube increasing amounts of the test product. Then, each tube was inoculated with a bacterial strain and after incubation for twenty-four or forty-eight hours in an oven at 37° C., the inhibition of the growth was evaluated by trans-illumination to determine the minimum inhibiting concentrations (M.I.C.), expressed in μg/ml.

Enterobacter Cloacae 681 = settings: 37° C.
Protocol: as §1, §2

[2] = tested on: Serratia Resistant to Gentamycine 2 532; settings: Serratia, 37° C.
Protocol: as §1, §2

Providencia Du 48 = settings: Providencia, DU48, 37° C.
Protocol: as §1, §2

[3] = tested on: Escherichia Coli Resistant to Tetracycline AT CC 11 303; settings: 37° C.
Protocol: as §1, §2

[4] = tested on: Klebsiella Pneumoniae Exp. 52145; settings: Klebsiella pneumoniae, 37° C.
Protocol: as §1, §2

[5] = tested on: Proteus mirabilis (indol -) A 235; settings: Proteus mirabilis, 37° C.
Protocol: as §1, §2

[6] = tested on: Salmonella typhimurium 420; settings: Salmonella enterica, 37° C.
Protocol: as §1, §2

[7] = tested on: Escherichia Coli Sensitive to Tetracycline 7624; settings: 37° C.
Protocol: as §1, §2

[8] = tested on: Escherichia Coli Resistant to Gentamycine Tobramycine R55 123 D; settings: 37° C.
Protocol: as §1, §2

[9] = tested on: Proteus vulgaris (indol +) A 232; settings: Proteus vulgaris, 37° C.
Protocol: as §1, §2

| MIC ([1]; 24 Hr.) [µg/mL] | MIC ([1]; 48 Hr.) [µg/mL] | MIC ([2]; 24 h) [µg/mL] | MIC ([2]; 48 h) [µg/mL] | MIC (Providencia Du 48; 24 Hr.) [µg/mL] | MIC (Providencia Du 48; 48 Hr.) [µg/mL] | MIC ([3]; 24 Hr.) [µg/mL] | MIC ([3]; 48 Hr.) [µg/mL] | MIC ([4]; 24 h) [µg/mL] | MIC ([4]; 48 h) [µg/mL] | MIC ([5]; 24 h) [µg/mL] | MIC ([5]; 48 h) [µg/mL] | MIC ([6]; 24 Hr.) [µg/mL] | MIC ([6]; 48 Hr.) [µg/mL] | MIC ([7]; 24 Hr.) [µg/mL] | MIC ([7]; 48 Hr.) [µg/mL] | MIC ([8]; 24 Hr.) [µg/mL] | MIC ([8]; 48 Hr.) [µg/mL] | MIC ([9]; 24 Hr.) [µg/mL] | MIC ([9]; 48 Hr.) [µg/mL] | SMILES | further results |
| --- | --- | --- | --- | --- | --- | --- | --- | --- | --- | --- | --- | --- | --- | --- | --- | --- | --- | --- | --- | --- | --- |
| 2.5 | 2.5 | 5 | 5 | 0.62 | 0.62 | 0.16 | 0.16 | 1.25 | 2.5 | 0.16 | 0.16 | 1.25 | 1.25 | 1.25 | 1.25 | 0.62 | 0.62 | 0.08 | 0.08 | CON=C(C(=O)NC1C(=O)N(S(=O)(=O)O)C1CCl)c1csc(N)n1 (mixture of isomers) [Example 1, Racemate of syn isomer of cis 4-chloromethyl-3-[2-(2-amino-4-thiazolyl)-2-methoxyimino-acetamido]-2-oxoazetidine-1-sulfonic acid] | MIC (Enterobacter Cloacae 681; CLOACAE681, 24 Hr.): 2.5 µg/mL; MIC (Enterobacter Cloacae 681; CLOACAE681, 48 Hr.): 2.5 µg/mL |
| 2.5 | 2.5 | 2.5 | 5 | 2.5 | 2.5 | 0.6 | 0.6 | 5 | 10 | 0.6 | 0.6 | 2.5 | 5 | 1.2 | 1.2 | 1.2 | 1.2 | 1.2 | 1.2 | NCCON=C(C(=O)NC1C(=O)N(S(=O)(=O)O)C1CCl)c1csc(N)n1 (mixture of isomers) [Example 3, Racemate of syn isomer of cis 4-chloromethyl-3[2(2-amino-4-thiazolyl)-2-(2-aminoethoxy)-imino-acetamido]-2-oxo-azetidine-1-sulfonic acid] | – |
| 2.5 | 2.5 | 5 | 5 | 0.6 | 1.2 | 0.6 | 0.6 | 5 | 5 | 0.6 | 1.2 | 1.2 | 2.5 | 0.6 | 0.6 | 0.6 | 0.6 | 0.6 | 0.6 | Nc1nc(C(=NO)C(=O)NC2C(=O)N(S(=O)(=O)O)C2CCl)cs1 (mixture of isomers) [Example 4, Racemate of syn isomer of cis 4-chloromethyl-3-[2-(2-amino-4-thiazolyl)-2-hydroxyimino-acetamido]-2-oxo-azetidine-1-sulfonic acid] | – |
